Test results taken from PMC9048841 (Journal of medicinal chemistry, 2022).
*1 amine or outer side, *2 acyl side, *3 side chain or, on linkers, in order; H or OH if unused. Where a SMILES comes first, the peptide text is derived from it. [ ]: non-standard residue; d: D form. The star is where a group is joined. Phe(3,4-(OMe)2) = COc1ccc(C[C@H](N)C(=O)O)cc1OC; Lys(Et,iPr) = CCN(CCCC[C@H](N)C(=O)O)C(C)C; X2 = O=C(C(N[*:1])[C@@H](O)c1ccccc1)[*:2]; Lys(Et2) = CCN(CC)CCCC[C@H](N)C(=O)O; Lys(Me2) = CN(C)CCCC[C@H](N)C(=O)O; X1 = O=C(c1ccoc1)*

Experiments:
[1] = target: CBX5 chromodomain (wild type) (Homo sapiens, UniProt P45973); test: ITC binding to wild-type CBX5 chromodomain; conditions: for fold tighter binding of CBX5 than to UNC6212 (Kme2): wild-type CBX5, relative to UNC6212
[2] = target: H3K9me3 peptide (Homo sapiens) (UniProt P68431); conditions: cited from earlier work

Molecule | Kd [1] [µM] | fold tighter binding than HP1 with H3K9me3 ([1]; CBX5 with UNC6212 vs HP1 with H3K9me3) | fold more potent than histone tail peptides H3K9me3 and H3K9me2 ([1]; KD for CBX5, ligand vs H3K9me3 and H3K9me2) | Kd [2] [µM] | fold tighter binding of CBX5 than to UNC6212 (Kme2) [1]
COc1ccc(C[C@H](NC(=O)[C@H](C)NC(=O)C(NC(=O)c2ccoc2)[C@@H](O)c2ccccc2)C(=O)N[C@@H](CCCCN(C)C)C(=O)N[C@@H](CO)C(N)=O)cc1OC (stereo partly drawn) [UNC6212, N-((7S,10S,13S,17S)-7-(((S)-1-amino-3-hydroxy-1-oxopropan-2-yl)carbamoyl)-10-(3,4-dimethoxybenzyl)-17-hydroxy-2,13-dimethyl-9,12,15-trioxo-17-phenyl-2,8,11,14-tetraazaheptadecan-16-yl)furan-3-carboxamide] (X1-[X2]A[Phe(3,4-(OMe)2)][Lys(Me2)]S-NH2) | 5.7 | about 2.5 fold | about 5 fold | – | –
CBX5 (from UniProt P45973) | – | – | – | 30 | –
CCN(CCCC[C@H](NC(=O)[C@H](Cc1ccc(OC)c(OC)c1)NC(=O)[C@H](C)NC(=O)C(NC(=O)c1ccoc1)[C@@H](O)c1ccccc1)C(=O)N[C@@H](CO)C(N)=O)C(C)C (stereo partly drawn) [UNC6864, N-((8S,11S,14S,18S)-8-(((S)-1-amino-3-hydroxy-1-oxopropan-2-yl)carbamoyl)-11-(3,4-dimethoxybenzyl)-3-ethyl-18-hydroxy-2,14-dimethyl-10,13,16-trioxo-18-phenyl-3,9,12,15-tetraazaoctadecan-17-yl)furan-3-carboxamide] (X1-[X2]A[Phe(3,4-(OMe)2)][Lys(Et,iPr)]S-NH2) | 3.3 | – | – | – | about 2 fold
CCN(CC)CCCC[C@H](NC(=O)[C@H](Cc1ccc(OC)c(OC)c1)NC(=O)[C@H](C)NC(=O)C(NC(=O)c1ccoc1)[C@@H](O)c1ccccc1)C(=O)N[C@@H](CO)C(N)=O (stereo partly drawn) [UNC6349, N-((8S,11S,14S,18S)-8-(((S)-1-amino-3-hydroxy-1-oxopropan-2-yl)carbamoyl)-11-(3,4-dimethoxybenzyl)-3-ethyl-18-hydroxy-14-methyl-10,13,16-trioxo-18-phenyl-3,9,12,15-tetraazaoctadecan-17-yl)furan-3-carboxamide] (X1-[X2]A[Phe(3,4-(OMe)2)][Lys(Et2)]S-NH2) | – | – | – | – | about 2 fold
